Measured values from US20140275711A1, “1-(Arylmethyl)-5,6,7,8-tetrahydroquinazolline-2,4-diones and Analogs and the Use Thereof” (Impact Therapeutics, Inc., priority 2011, published 2014).
Like-named read-outs stand apart in the source and are kept apart here.

How the values were obtained:
[1] = test system: BRCA-2 deficient CAPAN-1 human pancreatic cancer cells; test: Cell growth inhibition of BRCA-2 deficient CAPAN-1 cells, MTT based cell viability assay; details: read-out: Growth inhibition of CAPAN-1 cells by compounds (IC50)
Experimental: BRCA-2 deficient CAPAN-1 human pancreatic cancer cells were used to test the growth inhibiting activity of substituted 1-(arylmethyl)-5,6,7,8-tetrahydroquinazoline-2,4(1H,3H)-diones. Briefly, CAPAN-1 cells are grown and maintained in IMEM medium supplemented with 20% FBS. The assay takes 10 days to finish. On day 1, 6000 CAPAN-1 cells are seeded to each well of a 96-well plate. The cells are incubated at 37° C. in a CO2 cell culture incubator overnight. […] Ten-fold compound solutions were made by mixing 10 μl DMSO serial dilution solutions with 90 μl fresh growth medium. The cell culture medium was removed and 180 μl fresh media with FBS and 20 μl of compound solutions were added to each well. The final concentration of DMSO was 1%. Cells were then returned to the CO2 cell culture incubator and incubated at 37° C. for two days (day 3 and day 4). On day 5, the same procedure as what was done on day 2 was repeated. Cell culture medium was removed and fresh medium containing serial dilutions of compounds or reference compounds were added. Cells were returned to the CO2 cell culture incubator and incubated for two more days. On day 8, same procedure was repeated again and fresh medium containing the testing compounds or reference compounds were added and incubated for an additional 2 days. On day 10, 20 μl of MTT reagent (5 mg/ml) was added to each well of the cell culture plate and incubated for 4 h. The cell culture media was removed and 100 μl DMSO was added to each well. The 96-well cell culture plates were shaked horizontally for 10 min and readed in a Varioskan Flash plate reader (Thermo Fisher Scientific) at 520 and 690 nm. The obtained 520 nm absorbance readings substracting corresponding 690 nm reading were analyzed using a commercial graphic software (GraphPad Prism 5) and plotted against the Log scale of the compound concentrations.

[2] = test system: SW620 human colorectal cancer cells; test: Potentiation of the growth inhibiting activity of MMS, MTT based cell viability assay; details: read-out: Compounds potentiate the growth inhibiting activity of MMS (IC50)
Experimental: The synergistic potentiation effect of PARP inhibitors on the growth inhibiting activity of DNA damaging anticancer drugs such as methyl methanesulphonate (MIMS) were measured with SW620 human colorectal cancer cells (Shanghai Cancer Institute) using a MTT based cell viability assay. SW620 cells were grown and maintained in RPMI1640 (Gibco) medium supplemented with 10% FBS (Hyclone). In the first day of experiment, 4000 cells were seeded to each well of a 96-well cell culture plate and incubated at 37° C. and 5% CO2 in a cell culture incubator overnight. In the next day, the cell culture medium was removed. […] The serial dilutions of the reference compounds and the compounds to be tested were made with a 1:3 and 1:10 fashion in DMSO. The 10-fold concentrated solutions of these compounds were made by mixing 10 μl of the serial dilutions in DMSO with 90 μl fresh medium. The final concentration of DMSO in the medium was 1%. The cells were incubated at 37° C. in 5% CO2 cell culture incubator for additional 5 days (120 hours). Afterwards, the 96-well cell culture plate was taken out and 20 μl of MTT solution was added to each well and incubated at 37° C. for 4 h. The medium was removed and 100 μl DMSO was added to each well. The 96-well cell culture plates were shaked adequately for 10 min and readed in a Varioskan Flash plate reader (Thermo Fisher Scientific) at 520 and 690 nm. The data were analyzed by Prism 5 software (GraphPad). The obtained 520 nm absorbance readings substracting corresponding 690 nm reading were analyzed and plotted against the Log scale of the compound concentrations.

[3] = test system: Human breast cancer cell line T47D; test: Potentiation of MMS induced apoptosis, cell based caspase-3 activity assay; details: read-out: Compounds potentiate the apoptosis inducing activity of MMS (EC50);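 note: Caspase-3 activity in cell lysates measured by fluorescence (RFU), EC50 fitted from sigmoidal curve of signal versus log compound concentration in presence of MMS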
Experimental: Human breast cancer cell line T47D (Nanjing KeyGEN Biotech. CO., LTD.) was used to determine the potentiation effect of PARP-1 inhibitors on the apoptosis inducing activity of DNA damaging anticancer drugs such as MMS. Intracellular caspase-3 activity was used to measure cell apoptosis. Briefly, T47D cells were grown in DMEM/F12 cell culture medium (Hyclone) supplemented with 0.2 U/ml insulin (Genview) and 10% FBS (Hyclone). A day before experiment, 20000 of T47D cells were seeded to each well of a 96-well cell culture plate and maintained at 37° C. and 5% CO2 in a cell culture incubator overnight. On the day of experiment, cell culture medium was removed. […] The serial dilutions of the compounds to be tested and the reference compounds were made in a 1:3 and 1:10 fashion in DMSO. The 10-fold compound solutions were made by mixing 10 μl DMSO serial dilution solutions with 90 μl fresh growth medium. Twenty four hours later, the cells in the 96-well plates were centrifuged at 1000 g for 5 min and the supernatants were removed. 50 μl lysis buffer (10 mM Tris, pH 7.5, 0.1M NaCl, 1 mM EDTA, 0.01% Triton X-100) was added to each well and the plates were shaked horizontally for 30 min at 4° C. After centrifugation at 1000 g at 4° C. for 10 min, 20 μl of supernatant was transferred from each well to a corresponding well in a 384-well black plate. […] The plates were shaked to uniformly mix the wells and incubated at 37° C. for 3 h. […] The caspase-3 activity induced by the compounds was expressed as a relative fluorescence unit (RFU). The obtained fluorescence readings were analyzed using a commercial graphic software (GraphPad Prism 5) and plotted against the Log value of the compound concentrations. The EC50 values were obtained by fitting the data points with the equation of Y (fluorescence reading)=minimal fluorescence reading+(maximal fluorescence reading−minimal fluorescence reading)/(1+10̂(LogEC50−LogC)), where C is the concentration of the testing compound. The EC50 values were obtained by fitting the data points with S-shaped dose response curve equation (GraphPad Software, Inc).

PARP-1 enzyme = biological target: T1, PARP-1 enzyme (Homo sapiens, UniProt P09874); test: PARP-1 enzymatic activity assay (Trevigen 96-well kit); format: biochemical; details: 0.5 unit PARP-1, histone pre-coated plate, 60 min room temperature; read-out: The inhibitory effect of compounds on PARP-1 enzymatic activity (IC50)
T1 construct: purchased Trevigen, Inc. 4676-096-K
T1 sequence (P09874 whole entry): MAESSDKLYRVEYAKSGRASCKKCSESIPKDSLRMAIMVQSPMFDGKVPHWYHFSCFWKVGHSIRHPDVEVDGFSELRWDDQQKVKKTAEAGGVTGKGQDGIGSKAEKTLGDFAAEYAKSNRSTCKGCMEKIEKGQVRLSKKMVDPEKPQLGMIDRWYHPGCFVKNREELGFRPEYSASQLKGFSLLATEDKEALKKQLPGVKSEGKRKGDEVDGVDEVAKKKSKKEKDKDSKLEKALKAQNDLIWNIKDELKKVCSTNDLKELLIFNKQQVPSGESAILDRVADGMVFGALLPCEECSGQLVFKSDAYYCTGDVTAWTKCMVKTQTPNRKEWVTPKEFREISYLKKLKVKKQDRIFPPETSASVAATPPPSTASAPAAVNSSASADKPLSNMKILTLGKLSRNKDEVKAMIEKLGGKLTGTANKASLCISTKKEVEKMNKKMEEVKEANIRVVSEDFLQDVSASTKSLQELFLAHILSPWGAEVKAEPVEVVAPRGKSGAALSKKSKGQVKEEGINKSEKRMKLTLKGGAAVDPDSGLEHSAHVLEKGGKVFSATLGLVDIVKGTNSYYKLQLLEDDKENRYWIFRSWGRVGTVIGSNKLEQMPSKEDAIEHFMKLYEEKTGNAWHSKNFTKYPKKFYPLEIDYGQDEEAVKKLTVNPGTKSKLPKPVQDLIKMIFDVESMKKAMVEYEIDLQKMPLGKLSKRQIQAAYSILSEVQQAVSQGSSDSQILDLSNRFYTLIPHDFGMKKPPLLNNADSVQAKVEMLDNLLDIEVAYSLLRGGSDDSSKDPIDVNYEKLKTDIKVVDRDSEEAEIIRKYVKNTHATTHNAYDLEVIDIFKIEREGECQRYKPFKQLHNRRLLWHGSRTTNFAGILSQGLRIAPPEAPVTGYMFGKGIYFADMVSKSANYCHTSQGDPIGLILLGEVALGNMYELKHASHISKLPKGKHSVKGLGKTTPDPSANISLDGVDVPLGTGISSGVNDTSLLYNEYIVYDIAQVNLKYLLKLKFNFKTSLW
Experimental: Briefly, PARP-1 catalyzes the NAD-dependent addition of poly(ADP-ribose) to its nuclear protein substrates such as histones. The assay kit measures the incorporation of biotynylated poly(ADP-ribose) onto histone proteins in a 96-well format.
To each well of histone pre-coated plate 10 μl of 5-fold concentrations of testing compounds or reference compound, 15 μl of PARP-1 enzyme (0.5 unit) and 25 μl reaction buffer were added and the plates were incubated at room temperature for 60 min. The plates were washed with 200 μl PBS with 0.1% Triton X-100 twice and then with 200 μl PBS twice. The residual liquid was removed by carefully tapping the plates on paper towels. Equal volumes of PeroxyGlow™ solution A and B were mixed and 100 μl of the solution was added to each well. The luminescence readings were read immediately in a Varioskan Flash plate reader (Thermo Fisher Scientific).

[4] = BRCA-2 deficient CAPAN-1 cells, 10 day assay, MTT
[5] = SW620 cells, medium containing 1.5 μg/ml MMS, 5 days (120 hours), MTT
[6] = T47D cells, 100 nM MMS, 24 hours, intracellular caspase-3 activity

IC50 ([1]; Homo sapiens, CAPAN-1, 240 h) [nM] | IC50 ([2]; Homo sapiens, SW-620, 120 h) [nM] | EC50 ([3]; Homo sapiens, T47D, 24 h) [nM] | IC50 [1, 4] [nM] | IC50 [2, 5] [nM] | EC50 [3, 6] [nM] | IC50 (PARP-1 enzyme) [nM] | Structure (SMILES)
2270 | 10 | 25 |  |  |  |  | O=C(c1cc(Cn2c3c(c(=O)[nH]c2=O)CCCC3)ccc1F)N1CCN(CC2CCCCC2)CC1 [Example 38, 1-(4-Fluoro-3-(4-(cyclohexylmethyl)piperazine-1-carbonyl)benzyl)-5,6,7,8-tetrahydroquinazoline-2,4(1H,3H)-dione]
146 | 4.8 | 4 |  |  |  |  | O=C(c1ccc(F)c(Cn2c3c(c(=O)[nH]c2=O)CCCC3)c1)N1CCN(C(=O)C2CCCC2)CC1 [Example 42, 1-(6-Fluoro-3-(4-(cyclopentylcarbonyl)piperazine-1-carbonyl)benzyl)-5,6,7,8-tetrahydroquinazoline-2,4(1H,3H)-dione]
1070 | 46 | 14 |  |  |  |  | O=C(c1cc(Cc2n[nH]c(=O)c3ccccc23)ccc1F)N1CCN(C(=O)C2CC2)CC1 [AZD2281, olaparib, reference compound]
134 | 13 | 11 |  |  |  |  | O=C(c1ccc(F)c(Cn2c3c(c(=O)[nH]c2=O)CCCC3)c1)N1CCN(c2nccs2)CC1 [Example 51, 1-(6-Fluoro-3-(4-(thiazol-2-yl)piperazine-1-carbonyl)benzyl)-5,6,7,8-tetrahydroquinazoline-2,4(1H,3H)-dione]
116 | 4.6 | 6.4 |  |  |  |  | O=C(c1ccc(F)c(Cn2c3c(c(=O)[nH]c2=O)CCCC3)c1)N1CCN(c2ccccn2)CC1 [Example 47, 1-(6-Fluoro-3-(4-(pyridin-2-yl)piperazine-1-carbonyl)benzyl)-5,6,7,8-tetrahydroquinazoline-2,4(1H,3H)-dione]
81 | 9.7 | 58 |  |  |  |  | O=C(c1ccco1)N1CCN(C(=O)c2cc(Cn3c4c(c(=O)[nH]c3=O)CCCC4)ccc2F)CC1 [Example 27, 1-(4-Fluoro-3-(4-(furan-2-carbonyl)piperazine-1-carbonyl)benzyl)-5,6,7,8-tetrahydroquinazoline-2,4(1H,3H)-dione]
 |  |  | 761 | 7.6 | 30 |  | O=C(c1cc(Cn2c3c(c(=O)[nH]c2=O)SCCC3)ccc1F)N1CCN(c2ncccn2)CC1 [Example 60]
101 | 1.3 | 2.8 |  |  |  |  | O=C(c1cccs1)N1CCN(C(=O)c2cc(Cn3c4c(c(=O)[nH]c3=O)CCCC4)ccc2F)CC1 [Example 21, 1-(4-Fluoro-3-(4-(thiophene-2-carbonyl)piperazine-1-carbonyl)benzyl)-5,6,7,8-tetrahydroquinazoline-2,4(1H,3H)-dione]
17 | 0.83 | 0.99 |  |  |  | 2.6 | O=C(c1cc(Cn2c3c(c(=O)[nH]c2=O)CCCC3)ccc1F)N1CCN(c2ncccn2)CC1 [Example 20]
117 | 1.7 | 2.8 |  |  |  |  | O=C(c1cc(Cn2c3c(c(=O)[nH]c2=O)CCCC3)ccc1F)N1CCN(C(=O)C2CCC2)CC1 [Example 22, 1-(4-Fluoro-3-(4-(cyclobutylcarbonyl)piperazine-1-carbonyl)benzyl)-5,6,7,8-tetrahydroquinazoline-2,4(1H,3H)-dione]
3650 | 7.6 | 187 |  |  |  |  | O=C(c1cc(Cn2c3c(c(=O)[nH]c2=O)CCCC3)ccc1F)N1CCN(c2ccccc2)CC1 [Example 33, 1-(4-Fluoro-3-(4-phenylpiperazine-1-carbonyl)benzyl)-5,6,7,8-tetrahydroquinazoline-2,4(1H,3H)-dione]
69 | 1.9 | 6.2 |  |  |  |  | O=C(c1cc(Cn2c3c(c(=O)[nH]c2=O)CCCC3)ccc1F)N1CCN(C(=O)C2CCCC2)CC1 [Example 25, 1-(4-Fluoro-3-(4-(cyclopentylcarbonyl)piperazine-1-carbonyl)benzyl)-5,6,7,8-tetrahydroquinazoline-2,4(1H,3H)-dione]
107 | 12 | 91 |  |  |  |  | O=C(c1cccc(Cn2c3c(c(=O)[nH]c2=O)CCCC3)c1)N1CCN(C(=O)C2CCCC2)CC1 [Example 9, 1-(3-(4-(Cyclopentylcarbonyl)piperazine-1-carbonyl)benzyl)-5,6,7,8-tetrahydroquinazoline-2,4(1H,3H)-dione]
285 | 4 | 12 |  |  |  |  | O=C(c1ccoc1)N1CCN(C(=O)c2cc(Cn3c4c(c(=O)[nH]c3=O)CCCC4)ccc2F)CC1 [Example 35, 1-(4-Fluoro-3-(4-(furan-3-carbonyl)piperazine-1-carbonyl)benzyl)-5,6,7,8-tetrahydroquinazoline-2,4(1H,3H)-dione]
1240 | 12 | 32 |  |  |  |  | O=C(c1cc(Cn2c3c(c(=O)[nH]c2=O)CCCC3)ccc1F)N1CCN(C2CCCCC2)CC1 [Example 30, 1-(4-Fluoro-3-(4-cyclohexylpiperazine-1-carbonyl)benzyl)-5,6,7,8-tetrahydroquinazoline-2,4(1H,3H)-dione]
35 | 9.5 | 41 |  |  |  |  | O=C(c1ccccc1)N1CCN(C(=O)c2cc(Cn3c4c(c(=O)[nH]c3=O)CCCC4)ccc2F)CC1 [Example 18, 1-(4-Fluoro-3-(4-benzoylpiperazine-1-carbonyl)benzyl)-5,6,7,8-tetrahydroquinazoline-2,4(1H,3H)-dione]
297 | 4.9 | 14 |  |  |  |  | O=C(c1cc(Cn2c3c(c(=O)[nH]c2=O)CCCC3)ccc1F)N1CCN(c2cnccn2)CC1 [Example 28, 1-(4-Fluoro-3-(4-(pyrazin-2-yl)piperazine-1-carbonyl)benzyl)-5,6,7,8-tetrahydroquinazoline-2,4(1H,3H)-dione]
 |  |  | 19 | 4.1 | 2.2 |  | O=C(c1ccc(F)c(Cn2c3c(c(=O)[nH]c2=O)CCCC3)c1)N1CCN(c2ncccn2)CC1 [Example 41]
 |  |  | 272 | 61 | 98 |  | O=C(c1cc(Cn2c3c(c(=O)[nH]c2=O)CCCC3)ccc1F)N1CCN(C(=O)C2CCOCC2)CC1 [Example 53, 1-(4-Fluoro-3-(4-(tetrahydro-2H-pyran-4-carbonyl)piperazine-1-carbonyl)benzyl)-5,6,7,8-tetraquinazoline-2,4(1H,3H)-dione]
49 | 1.5 | 1.6 |  |  |  |  | O=C(c1cc(Cn2c3c(c(=O)[nH]c2=O)CCCC3)ccc1F)N1CCN(c2nccs2)CC1 [Example 23, 1-(4-Fluoro-3-(4-(thiazol-2-yl)piperazine-1-carbonyl)benzyl)-5,6,7,8-tetrahydroquinazoline-2,4(1H,3H)-dione]
152 | 15 | 32 |  |  |  |  | O=C(c1cc(Cn2c3c(c(=O)[nH]c2=O)CCCC3)ccc1F)N1CCN(C(=O)C2CCCO2)CC1 (stereo not shown) [Example 39, 1-(4-Fluoro-3-(4-(tetrahydrofuran-2-carbonyl)piperazine-1-carbonyl)benzyl)-5,6,7,8-tetrahydroquinazoline-2,4(1H,3H)-dione]
1000 | 16 | 12 |  |  |  |  | O=C(c1ccc(F)c(Cn2c3c(c(=O)[nH]c2=O)CCCC3)c1)N1CCN(C(=O)C2CCC2)CC1 [Example 50, 1-(6-Fluoro-3-(4-(cyclobutylcarbonyl)piperazine-1-carbonyl)benzyl)-5,6,7,8-tetrahydroquinazoline-2,4(1H,3H)-dione]
221 | 3.4 | 13 |  |  |  |  | O=C(c1ccsc1)N1CCN(C(=O)c2cc(Cn3c4c(c(=O)[nH]c3=O)CCCC4)ccc2F)CC1 [Example 36, 1-(4-Fluoro-3-(4-(thiophene-3-carbonyl)piperazine-1-carbonyl)benzyl)-5,6,7,8-tetrahydroquinazoline-2,4(1H,3H)-dione]
58 | 3.6 | 9.9 |  |  |  |  | O=C(c1cc(Cn2c3c(c(=O)[nH]c2=O)CCCC3)ccc1F)N1CCN(C(=O)C2CCCCC2)CC1 [Example 24, 1-(4-Fluoro-3-(4-(cyclohexylcarbonyl)piperazine-1-carbonyl)benzyl)-5,6,7,8-tetrahydroquinazoline-2,4(1H,3H)-dione]
